Columns and labels:
Assay type in all cases: cell-based
[1] = biological target: T1, Peroxisome proliferator-activated receptor gamma (Homo sapiens, UniProt P37231); assay: Agonist activity at human PPARgamma transfected in African green monkey COS-7 cells co-transfected with pGL4.35 and pBIND reporter gene plasmid assessed as receptor transactivation incubated for 16 hrs by luciferase reporter gene assay
T1 sequence (P37231 whole entry): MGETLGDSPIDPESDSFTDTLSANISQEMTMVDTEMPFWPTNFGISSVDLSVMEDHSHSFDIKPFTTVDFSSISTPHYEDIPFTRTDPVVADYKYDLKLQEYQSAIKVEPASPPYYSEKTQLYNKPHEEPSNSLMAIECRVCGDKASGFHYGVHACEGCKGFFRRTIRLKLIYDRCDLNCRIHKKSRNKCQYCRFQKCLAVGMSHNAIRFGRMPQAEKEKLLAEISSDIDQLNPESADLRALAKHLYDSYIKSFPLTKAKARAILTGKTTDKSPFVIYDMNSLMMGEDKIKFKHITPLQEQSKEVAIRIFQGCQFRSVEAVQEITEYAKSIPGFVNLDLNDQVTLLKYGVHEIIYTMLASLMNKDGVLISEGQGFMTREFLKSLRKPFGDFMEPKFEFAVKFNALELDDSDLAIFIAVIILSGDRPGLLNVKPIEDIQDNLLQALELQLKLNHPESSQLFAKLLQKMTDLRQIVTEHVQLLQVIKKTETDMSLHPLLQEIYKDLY

[2] = biological target: T2, Peroxisome proliferator-activated receptor delta (Homo sapiens, UniProt Q03181); assay: Agonist activity at human PPARdelta transfected in African green monkey COS-7 cells co-transfected with pGL4.35 and pBIND reporter gene plasmid assessed as receptor transactivation incubated for 16 hrs by luciferase reporter gene assay
T2 sequence (Q03181 whole entry): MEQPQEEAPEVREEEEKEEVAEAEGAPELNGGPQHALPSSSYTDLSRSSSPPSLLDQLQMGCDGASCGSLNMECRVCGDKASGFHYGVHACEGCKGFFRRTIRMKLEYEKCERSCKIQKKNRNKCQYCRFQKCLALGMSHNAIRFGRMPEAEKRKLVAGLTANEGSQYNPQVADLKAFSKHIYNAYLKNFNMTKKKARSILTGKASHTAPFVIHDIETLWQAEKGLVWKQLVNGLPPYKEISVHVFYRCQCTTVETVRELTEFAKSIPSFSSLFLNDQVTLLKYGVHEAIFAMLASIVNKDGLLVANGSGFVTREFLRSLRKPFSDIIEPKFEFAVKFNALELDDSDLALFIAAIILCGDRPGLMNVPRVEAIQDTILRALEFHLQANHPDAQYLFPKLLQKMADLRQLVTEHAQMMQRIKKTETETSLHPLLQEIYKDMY

[3] = biological target: T3, Peroxisome proliferator-activated receptor alpha (Homo sapiens, UniProt Q07869); assay: Agonist activity at human PPARalpha transfected in African green monkey COS-7 cells co-transfected with pGL4.35 and pBIND reporter gene plasmid assessed as receptor transactivation incubated for 16 hrs by luciferase reporter gene assay
T3 sequence (Q07869 whole entry): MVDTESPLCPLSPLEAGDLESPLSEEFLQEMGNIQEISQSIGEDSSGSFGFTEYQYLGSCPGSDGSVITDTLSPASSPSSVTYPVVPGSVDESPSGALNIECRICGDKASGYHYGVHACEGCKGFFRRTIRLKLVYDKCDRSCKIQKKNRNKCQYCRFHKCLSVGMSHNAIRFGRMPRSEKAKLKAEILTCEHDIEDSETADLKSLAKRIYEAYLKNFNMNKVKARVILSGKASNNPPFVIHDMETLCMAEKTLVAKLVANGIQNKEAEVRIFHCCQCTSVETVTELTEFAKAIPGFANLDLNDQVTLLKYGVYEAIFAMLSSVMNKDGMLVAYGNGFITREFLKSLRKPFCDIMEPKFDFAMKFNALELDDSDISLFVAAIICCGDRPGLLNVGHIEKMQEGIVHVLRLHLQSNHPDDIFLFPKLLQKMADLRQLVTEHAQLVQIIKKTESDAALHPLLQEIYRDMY

EC50 [1] | EC50 [2] | EC50 [3] | SMILES
> 10 µM |  |  | Cc1c(CN2CCN(c3ccc(C(F)(F)F)cc3)CC2)ccc(OC(C)(C)C(=O)O)c1C
7.2 µM | > 10 µM |  | Cc1cc(CN2CCN(c3ccc(F)cn3)CC2)cc(C)c1OC(C)(C)C(=O)O
8.6 µM | 2 µM |  | Cc1cc(CN2CCN(Cc3ccc(C(F)(F)F)cn3)CC2)cc(C)c1OC(C)(C)C(=O)O
 | > 10 µM |  | Cc1cc(CN2CCN(c3ncccc3C(F)(F)F)CC2)cc(C)c1OC(C)(C)C(=O)O
> 10 µM |  |  | Cc1cc(CN2CCN(c3ccc(C(F)(F)F)nc3)CC2)cc(C)c1OC(C)(C)C(=O)O
> 10 µM |  |  | Cc1cc(CN2CCN(Cc3ccc(C(F)(F)F)nc3)CC2)cc(C)c1OC(C)(C)C(=O)O
 | > 10 µM |  | Cc1ccc(N2CCN(Cc3cc(C)c(OC(C)(C)C(=O)O)c(C)c3)CC2)nc1
 | > 10 µM |  | Cc1cc(CN2CCN(c3ccccn3)CC2)cc(C)c1OC(C)(C)C(=O)O
 |  | > 10 µM | Cc1cc(OC(C)(C)C(=O)O)ccc1CN1CCN(c2ccc(C(F)(F)F)cc2)CC1
> 10 µM | 0.8 µM |  | Cc1cc(CN2CCN(c3ccc(C(F)(F)F)cc3)CC2)cc(C)c1OC(C)(C)C(=O)O
> 10 µM | 3.2 µM |  | Cc1cc(CN2CCN(c3cnc(C(F)(F)F)nc3)CC2)cc(C)c1OC(C)(C)C(=O)O
> 10 µM |  |  | Cc1cc(CN2CCN(c3ccc(C(F)(F)F)cc3)CC2)ccc1OC(C)(C)C(=O)O
 | 0.8 µM |  | Cc1cc(CN2CCN(c3ncc(C(F)(F)F)cn3)CC2)cc(C)c1OC(C)(C)C(=O)O
> 10 µM | 4.4 µM |  | CC(C)(Oc1ccc(CN2CCN(c3ccc(C(F)(F)F)cc3)CC2)cc1)C(=O)O
13.2 µM | 49.7 µM |  | CC(C)(Oc1ccc(CCNC(=O)c2ccc(Cl)cc2)cc1)C(=O)O [BEZAFIBRATE]
0.6 µM | 2.9 µM | 3.2 µM | O=C(O)CCCc1cc2cc(Cl)ccc2n1S(=O)(=O)c1ccc2ncsc2c1 [LANIFIBRANOR]

From ChEMBL document CHEMBL5500338, “Design, synthesis, and biological evaluation of piperazine derivatives as pan-PPARs agonists for the treatment of liver fibrosis” (Eur J Med Chem, 2024)
